Results published in ChEMBL document CHEMBL1201862, “PubChem BioAssay data set” (2004).
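Exposure lasted 48 hours, with cells grown in 96-well plates and compounds tested at five concentrations. GI50 = concentration required for 50% inhibition of growth.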 The source made the active and inactive calls. No stated cut-off is given here; in the data, active = GI50 up to about 1.1 µM and inactive = higher.

How the values were obtained:
Test in all cases: DTP human tumour cell line panel, 48 h
786-0 = tested on: 786-0
A549 = tested on: A549
ACHN = tested on: ACHN
EKVX = tested on: EKVX
HCC 2998 = tested on: HCC 2998
HL-60 = tested on: HL-60
IGROV-1 = tested on: IGROV-1
LOX IMVI = tested on: LOX IMVI
MDA-N = tested on: MDA-N
NCI-H226 = tested on: NCI-H226
NCI-H23 = tested on: NCI-H23
NCI-H460 = tested on: NCI-H460
OVCAR-5 = tested on: OVCAR-5
OVCAR-8 = tested on: OVCAR-8
RXF 393 = tested on: RXF 393
SR = tested on: SR
T47D = tested on: T47D
U-251 = tested on: U-251
UACC-257 = tested on: UACC-257
UO-31 = tested on: UO-31

Measured: GI50

COc1ccc(OC)c(CSc2ccc(OC)c(OC)c2)c1
inactive: 786-0 > 100 µM | A549 > 79.4 µM | ACHN > 100 µM | EKVX 62.4 µM | HCC 2998 97.1 µM | HL-60 > 50.5 µM | IGROV-1 99.1 µM | LOX IMVI > 64.6 µM | MDA-N > 77.6 µM | NCI-H226 > 71.4 µM | NCI-H23 82 µM | NCI-H460 > 100 µM | OVCAR-5 > 100 µM | OVCAR-8 > 95.3 µM | RXF 393 > 100 µM | SR > 100 µM | T47D 10.6 µM | U-251 > 94.2 µM | UACC-257 > 83.4 µM | UO-31 55.3 µM

N#Cc1c(Cl)cccc1Oc1ccc(S(=O)(=O)N/C(=N\O)Nc2ccc(Cl)cc2)cc1
inactive: 786-0 13.6 µM | A549 16.8 µM | ACHN 15.6 µM | EKVX 15.5 µM | HCC 2998 14.7 µM | HL-60 12.1 µM | IGROV-1 16.3 µM | LOX IMVI 16 µM | MDA-N 16.4 µM | NCI-H226 24.8 µM | NCI-H23 17.6 µM | NCI-H460 17.9 µM | OVCAR-5 19.3 µM | OVCAR-8 18 µM | RXF 393 17.9 µM | SR 23.9 µM | T47D 13.2 µM | U-251 17 µM | UACC-257 16.9 µM | UO-31 14.2 µM
